From US20100240746A1, “STEREOISOMERS OF TRICYCLODECAN-9-YL-XANTHOGENATE” (LUMAVITA AG, priority 2007, published 2010)
In brackets after ≈: the same amount, converted by molar mass.

Legend:
[1] = system: phosphatidylcholine-specific phospholipase C (PC-PLC); details: Gonzalez-Roura et al.; comparison between diastereomers; cited from earlier work
[2] = system: bovine papilloma virus type I (BPV-1)-transformed HEF (HEF-BPV); test: Inhibition of bovine papilloma virus, BPV-infected hamster embryo fibroblasts (HEF) cell proliferation assay; format: cell-based; details: Bos taurus papillomavirus 1, HEF, 72 h, pH 6.8, HEF-BPV, 37° C., read-out: IC50
Description: Briefly, hamster embryo fibroblasts and bovine papilloma virus type I (BPV-1)-transformed HEF (HEF-BPV) were grown in Eagle's basal medium. […] and HEF cells were seeded in 96-well plates at a density of 0.5×10^6 cells per plate in DMEM cell culture medium containing 10% fetal calf serum at pH 6.8. The plates were then incubated in the presence of 5% CO2 in 100% humidity at 37° C. After 6 hr, the cell culture medium in the plates was exchanged with fresh DMEM cell culture medium containing test compounds at a series of concentrations. The plates were incubated at 37° C. for additional 72 hr. Cells in the plates were then washed with PBS, fixed with 3% formaldehyde solution containing 0.9% NaCl for 1 min, washed by water for 10 sec, and dried overnight. For detection, the plates were stained with crystal violet solution for 5 min at room temperature, washed 5 times with water, and dried at room temperature overnight. After adding ethanol/acetic acid (99:1, v/v, […]) to each well, the plates were measured at 595 nm using an ELISA reader.

[3] = system: Herpes simplex virus type-2 (HSV-2); test: Inhibition of HSV-2 (plaque assay; Calu-6 infected, RITA cells for plaques); format: cell-based
Description: (§1) Calu-6 cells and RITA cells were grown in DMEM cell culture medium containing 10% fetal calf serum in CO2 incubator under 5% CO2 at 37° C. with 100% humidity.
(§2) For HSV-2 inhibition, Calu-6 cells were seeded in 96 well plates at a density of 3×10^6 cells per plate in the DMEM cell culture medium. The plates were incubated at 37° C. in the presence of 5% CO2 for 24 hr. The DMEM cell culture medium in the plates was removed and the cells were infected with Herpes simplex virus type-2 at 50 plaque forming units per well. After incubation at 37° C. for 60 min, test compounds in DMEM cell culture medium at a series of concentrations were added. The plates were incubated at 37° C. in the presence of 5% CO2 for 48 hr. The plates were frozen at −20° C. prior to further analysis. After thawing at room temperature, supernatants containing infectious virus particles were prepared by centrifuging the supernatant from each well at 18,000 g at 4° C. for 5 min. The supernatant was further diluted before assay.
RITA cells were seeded in 24 well Linbra plates at a density of 4×10^6 cells per plate in 2 mL of DMEM cell culture medium. The plates were incubated at 37° C. in the presence of 5% CO2 for 24 hr. After the removal of the cell culture medium, 0.1 mL of the diluted supernatants was added and the plates were incubated at 37 C for 1 hr. DMEM cell medium containing 10% fetal calf serum and 0.5% methyl cellulose was added and the plates were incubated at 37 for 48 hr. The plates were then washed with PBS, fixed with 3% formaldehyde solution containing 0.9% NaCl for 1 min, washed by water for 10 sec, and dried overnight. For detection, the plates were then stained with crystal violet solution for 5 min at room temperature, washed 5 times with water, and dried at room temperature overnight. The number of plaques was determined macroscopically. The number of plaques per well was then multiplied with the dilution factor. Dose response curves were obtained by plotting the number of plaques/0.1 mL against compound concentration. The therapeutic index was also calculated for each compound by dividing LD50 with IC50.

[4] = target: T1, B. cereus PC-PLC (phosphatidylcholine-specific phospholipase C) (Bacillus cereus, UniProt P09598); test: Inhibition of phosphatidylcholine-specific phospholipase C (Amplex Red PC-PLC assay kit); format: biochemical; details: 30 min at 37° C., 0.2 U/mL PC-PLC solution, triplicate
T1 construct: purchased Invitrogen
T1 sequence (P09598 39-283 limits assumed): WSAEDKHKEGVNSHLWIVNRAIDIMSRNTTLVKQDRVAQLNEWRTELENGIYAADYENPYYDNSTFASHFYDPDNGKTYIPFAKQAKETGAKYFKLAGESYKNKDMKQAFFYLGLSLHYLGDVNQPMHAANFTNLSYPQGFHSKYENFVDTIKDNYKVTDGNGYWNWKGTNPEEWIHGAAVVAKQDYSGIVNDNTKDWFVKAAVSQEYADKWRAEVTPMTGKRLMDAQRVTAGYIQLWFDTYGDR
Description: (§3) The inhibitory activities of optically active potassium salts of (+)- and (−)-O-exo/C-exo-tricyclo [5.2.1.0^2,6]-dec-9-yl-xanthic acid 1A ((+)- and (−)-enantiomers 1A) against phosphatidylcholine-specific phospholipase C were evaluated, together with D609 and potassium salt of racemic O-exo/C-exo xanthic acid 1A (racemic 1A), using Amplex Red phosphatidylcholine-specific phospholipase C(PC-PLC) assay kit, which was obtained from Invitrogen (Calsbad, Calif.). D609 was obtained from Sigma Aldrich.
(§4) An Amplex Red stock solution (˜20 mM), a working reaction buffer, and a horseradish peroxidase stock solution (200 U/mL), a H2O2 working solution (20 mM), a choline oxidate stock solution (20 U/mL), an alkaline phosphatase stock solution (400 U/mL), and a B. cereus PC-PLC stock solution (10 U/mL) were prepared according to the instruction of the assay kit. The stock solution (100 mg/mL) for each test compound was also prepared by dissolving the compound in water 2 hr prior to the start of the experiment.
(§5) A working Amplex Red/HRP/lecithin solution was prepared by adding 200 μL of Amplex Red reagent stock solution, 100 μL of HRP stock solution, 200 μL of alkaline phosphatase stock solution, 100 μL of choline oxidase stock solution, and 78 μL of the lecithin solution to […] of the working reaction buffer. PC-PLC solution (0.2 U/mL) was prepared by diluting the PC-PLC stock solution with the working reaction buffer to the desired concentration.
The test compound (25 μL) at a serious of concentrations was pipetted into a 96 well plate. For uninhibited PC-PLC controls and non-PC-PLC controls, 25 μL of water was added. After the addition of 50 μL of the Amplex Red/HRP/lecithin working solution, the reaction was initiated by adding 25 μL of PC-PLC solution to each well. […] After incubated for 30 min at 37° C., the reactions were measured with a fluorescence microplate reader using excitation at 550 nm and emission detection at 590 nm. The fluorescent data obtained were corrected for background fluorescence by subtracting the values obtained from the non-PC-PLC controls.

[5] = target: T2, phosphatidylcholine-specific phospholipase C (PC-PLC) (Bacillus cereus, UniProt P09598); test: Amplex Red phosphatidylcholine-specific phospholipase C (PC-PLC) inhibition assay; format: biochemical, B. cereus; details: 30 min at 37° C., triplicate
T2 construct: purchased Invitrogen
T2 sequence (P09598 39-283 limits assumed): as above
Description: as §3, §4, §5
The test compound (25 μL) at a serious of concentrations was pipetted into a 96 well plate. For uninhibited PC-PLC controls and non-PC-PLC controls, 25 μL of water was added. After the addition of 50 μL of the Amplex Red/HRP/lecithin working solution, the reaction was initiated by adding 25 μL of PC-PLC solution to each well. To the non-PC-PLC controls, 25 μL of water was added instead of PC-PLC solution. The experiment was performed in triplicate. The reactions were protected from light. After incubated for 30 min at 37° C., the reactions were measured with a fluorescence microplate reader using excitation at 550 nm and emission detection at 590 nm. The fluorescent data obtained were corrected for background fluorescence by subtracting the values obtained from the non-PC-PLC controls.

Calu-6 cells = test: Cytotoxicity assay in Calu-6 cells (crystal violet); format: cell-based; details: 48 hr
Description: as §1
For cytotoxicity assay, Calu-6 cells were seeded in 96 well plates at a density of 3×10^6 cells per plate in the DMEM cell culture medium. The plates were incubated at 37° C. in the presence of 5% CO2 for 24 hr. The DMEM cell culture medium in the plates was exchanged with fresh DMEM cell culture medium containing test compounds at a series of concentrations. The plates were incubated at 37° C. in the presence of 5% CO2 for 48 hr. The plates were then washed with PBS, fixed with 3% formaldehyde solution containing 0.9% NaCl for 1 min, washed by water for 10 sec, and dried overnight. For detection, the plates were stained with crystal violet solution for 5 min at room temperature, washed 5 times with water, and dried at room temperature overnight. After adding ethanol/acetic acid (99:1, v/v, […]) to each well, the plates were measured at 595 nm using an ELISA reader. A dose response curve was obtained for each compound tested by plotting the mean values of the optical densities against compound concentration.

[6] = system: herpes simplex virus type 2; test: HSV-2 inhibition in Calu-6 cells, plaque titration on RITA cells; format: cell-based; details: Human alphaherpesvirus 2, Calu-6; 48 hr, 50 plaque forming units per well
Description: as §1, §2
RITA cells were seeded in 24 well Linbra plates at a density of 4×10^6 cells per plate in 2 mL of DMEM cell culture medium. The plates were incubated at 37° C. in the presence of 5% CO2 for 24 hr. […] The number of plaques was determined macroscopically. […] The therapeutic index was also calculated for each compound by dividing LD50 with IC50.

[7] = system: HPV-31-infected CIN612 9E keratinocytes; test: Long-term study: cell proliferation and morphology of CIN612 9E cells over 9 passages; format: cell-based; details: 200 IU/mL
Description: (§6) HPV-31 infected cells (3×10^6) were dispensed into 14.5 cm dishes containing fresh E medium and 1×10^6 cells of mitomycin C-treated 3T3 fibroblast feeders. The dishes were incubated in a CO2 incubator under 5% CO2 at 37° C. in 100% humidity. Human A431 epithelial cancer cells were used as HPV-uninfected negative controls. After 6 hr incubation, the cell culture medium was removed and fresh E medium containing 0.85 g/L NaHCO3 and a test compound at concentrations of 10 and 3.3 μg/mL, or control (interferon γ at 200 IU/mL) were added. For each concentration, 4 dishes were prepared. The dishes were incubated at 37° C. in a CO2 incubator. The culture medium was replaced to new E medium containing each concentration of the test compound or control in every 72 hrs. After seven days, or when untreated cells became confluent, one dish of each group was harvested for DNA/RNA extraction, followed by Southern/Northern Blot analysis; and one dish was trypsinized, cell number were determined and cells were seeded in three new dishes, treated and cultured as described above. This procedure was repeated for 9 passages. During these passages, morphology of cells and cell density were monitored.
Effect on cell proliferation. Cell numbers in the dishes harvested were determined in a Neubauer hematocytometer. The multiplication factor was determined at every step of passage. The cell number of each culture at the end of the passage was divided by the number of seeded cells at the start of each passage. The end point was reached when keratinocytes treated with a test compound stopped growing. Stop of cell growth was defined as a multiplication factor of no greater than 1.

[8] = system: HPV-31-infected CIN612 9E keratinocytes; test: Short-term study: growth of HPV-31-infected CIN612 9E keratinocytes (crystal violet); format: cell-based; details: at 200 UI/mL, 72 hrs
Description: The inhibitory activities of optically active (−)-enantiomer 1A against human papilloma virus were evaluated using HPV-31-infected CIN612 9E keratinocytes (Meyers et al., Science 1992, 257, 971-973).
Effect on cell proliferation. HPV-31 infected cells were seeded in 96-well plates containing 1×10^6 mitomycin C treated 3T3 cells (1×10^4 cells/well), at a density of 0.5×10^6 cells per plate (0.5×10^4 cells/well) in E medium. After the plates were incubated in a CO2 incubator under 5% CO2 at 37° C. in 100% humidity for six hrs, the cell culture medium was removed and fresh E medium containing 0.85 g/L NaHCO3 and a test compound at a series of concentrations (0, 0.5, 1, 2, 4, 8, 16, 32, 64, and 128 μg/mL), or positive control (interferon γ at 200 IU/mL) was added. […] After the plates were dried on blotting paper upside down overnight, 0.1 mL of ethanol/acetic acid (99:1) was added to each well and optical density at 595 nm was determined in an ELISA reader.
Dose response curves were established by plotting growth against concentrations of the test compound or control. ICso values were determined from the dose response curves from crossing points of the dose response curves with a line parallel to the x-axis corresponding to 50% of uninhibited growth.

HPV-31 specific RNA = test: Long-term study: HPV-31 specific RNA level (Northern blot); format: cell-based, human papilloma virus; details: at 200 IU/mL
Description: as §6
(§7) Effect on HPV-31 specific DNA and RNA: DNA and RNA were analyzed in Southern and Northern Blot gels for HPV-31 specific sequences. X-ray films were scanned and optical densities of HPV-31 specific DNA and major mRNA species were integrated. Time curves were established by plotting integrated values against number of passages for each treatment dose. The T50 (time required to reduce the level to 50% of control) was determined from the time curves from crossing points of time curves with a line parallel to the x-axis corresponding to 50% of integrals of untreated control sample.

HPV-31 specific DNA = test: Long-term study: HPV-31 specific DNA level (Southern blot); format: cell-based, human papilloma virus; details: at 200 IU/mL
Description: as §6, §7

In the case of S=C(S)OC1CC2CC1C1CCCC21 (racemic) [Racemic 1A, racemic O-exo/C-exo-tricyclo[5.2.1.0^2,6]-dec-9-yl-xanthic acid], the “inhibitory activities against PC-specific phospholipase C” value [1] is listed as “no significant differences”.

In the case of S=C(S)OC1CC2CC1C1CCCC21 (single isomer, unassigned; (+)) [(+)-Enantiomer 1A, (+)-O-exo/C-exo-tricyclo[5.2.1.0^2,6]-dec-9-yl-xanthic acid], the IC50 [2] is reported as 19.9 ± 2.52 µg/mL (≈ 87.1 µM), the IC50 ([3]; Calu-6 cells, 48 hr, 50 plaque forming units per well) is reported as 20.97 ± 4.06 µg/mL (≈ 91.8 µM) and the “Therapeutic Index” value ([3]; LD50 (Calu-6) divided by IC50 (HSV-2), 2880 min) is reported as 3.9. For the same molecule, the IC50 [4] was 60.8 µM.

Work on S=C(S)OC1CC2CC1C1CCCC21 (single isomer, unassigned; enantiomer 1a) [(+)-Enantiomer 1A, (+)-O-exo/C-exo-tricyclo[5.2.1.0^2,6]-dec-9-yl-xanthic acid 1A] yielded an IC50 [5] of 13.88 ± 0.85 µg/mL (≈ 60.8 µM) and an LD50 (Calu-6 cells) of 81.29 ± 4.53 µg/mL.

Nc1nc2c(ncn2COCCO)c(=O)[nH]1 [Aciclovir, aciclovir] showed an IC50 [6] of 1.21 ± 0.81 µg/mL (≈ 5.37 µM).

For S=C(S)OC1CC2CC1C1CCCC21 (stereo not drawn) [O-exo/C-endo 1B], the “inhibitory activities against PC-specific phospholipase C” value [1] is listed as “no significant differences”.

B1: INF-γ: interferon γ, positive control at 200 IU/mL (protein, UniProt P01579 24-161, looked up)
Interferon gamma: QDPYVKEAENLKKYFNAGHSDVADNGTLFLGILKNWKEESDRKIMQSQIVSFYFKLFKNFKDDQSIQKSVETIKEDMNVKFFNSNKKKRDDFEKLTNYSVTDLNVQRKAIHELIQVMAELSPAAKTGKRKRSQMLFRG
In the case of B1, the multiplication factor ([7]; first cell passage) is reported as 0.8, the multiplication factor ([7]; second passage) is reported as 2.4 and the “inhibition of the growth of HPV-31-infected CIN612 9E keratinocytes” value [8] is reported as “about 50%”. For the same molecule, the “T50 RNA” value (HPV-31 specific RNA) was 3.36 passages and the “T50 DNA” value (HPV-31 specific DNA) was 2.7 passages.
